# Where “and” joins values, the source holds several entries; their conditions need not be identical. Equal values may be shown once.
# Experiments:
# AP-DNA [1] = assay: Reversibility study of the condensation reaction between FARP / MX and AP-DNA; format: binding, calf; settings: result in words, under the assay conditions
# Procedure: It was known that the aldehyde group of an AP site could easily condense with aminooxy or hydrazone nucleophiles. However, the reversibility of the reaction was not clear, especially in the presence of another competing nucleophile. To clarify the above, two experiments were designed and carried out as follows: (a) FARP (50 μM in 100 μL of 10 mM phosphate buffer at pH 7.0) reacted with AP-DNA (125 nM in 200 μL of 10 mM phosphate buffer at pH 7.0) for 1 hr, after washing the condensation product (FARP-AP-DNA) incubated with MX (50 μM in 100 μL of 10 mM phosphate buffer at pH 7.0) for various time periods; and (b) MX (50 μM in 100 μL of 10 mM phosphate buffer at pH 7.0) reacted with AP-DNA (125 nM, 200 μL) for 1 hr, after washing the condensation product (MX-AP-DNA) incubated with FARP (50 μM in 100 μL of 10 mM phosphate buffer at pH 7.0) for various time periods.
# AP-DNA [2] = assay: FARP AP-site assay: screening of MX-like compounds in competition with FARP; format: binding, calf; settings: 100 nM AP-DNA
# Procedure: 100 μL of 5 μM FARP in phosphate buffer (10 mM, pH 7.0) was added to 200 μL phosphate buffer (10 mM, pH 7.0) containing 10 μg of DNA extracted from cells, individual AP-DNA standard (10, 20, 40, 80, 160, 320, and 640 nM AP), and blank AP-DNA control, respectively. After vortexing, the reaction was allowed to proceed at room temperature for 15 min. At the end of the reaction 200 μL ammonium acetate (7.5M) and 1000 μL ice-cold ethanol (100%) were added. The solution was mixed gently by inverting the tube before keeping it at −20° C. for 30 min. Each tube was centrifuged at 4° C. and 12,000 g for 10 min. The supernatant was poured out carefully so that no loss of FARP-AP-DNA took place. 1200 μL of ice-cold ethanol (70%) was added to each tube to remove the free FARP by centrifugation at 4° C. and 12,000 g for 10 min. This washing step with 70% ice-cold ethanol was repeated two more times. After discarding the supernatant, the FARP-AP-DNA precipitate in the tube was dried at room temperature for 30 min. in a venting hood. The FARP-AP-DNA precipitate was hydrated and resuspended in 200 μL of phosphate buffer (10 mM, pH 9.0) at room temperature for 1 hr. The fluorescence intensity of the resultant FARP-AP-DNA solution was measured by the FluoroMax-2 spectrofluorometer. A calibration curve could be constructed by plotting the fluorescence intensity versus the concentration of AP sites.
# One important application of the FARP AP-site assay developed is to screen MX-like compounds for their reactivity to AP site based on known chemical structures. In this work, four compounds with aminooxy or hydrazone group (i.e., MXL1O1, MXLIO2, MXLI 03, and MXL 104) together with MX were tested. The detail experiment included mixing equal concentration and volume of each individual test compound with FARP (50 μM in 100 μL of 10 mM phosphate buffer at pH 7.0) before reacting with 200 µL of 100 nM AP-DNA. The remaining experimental procedures were the same as described in the Experimental section. The data of fluorescence intensity reduced by MX and MX-like compounds were given in Table XI and the fluorescence intensity of the test compounds were compared in FIG. 19.
# [3] = test compound mixed with FARP at equal concentration and volume (50 μM in 100 μL, pH 7.0)
smiles,measurement,setting,value
"NNC(=S)Nc1ccc(-c2c3ccc(=O)cc-3oc3cc(O)ccc23)c(C(=O)O)c1 [FARP, fluorescein-5-thiosemicarbazide]",reversibility of the condensation reaction with aldehyde group of AP-DNA,AP-DNA [1],irreversible
same,Normalized Fluorescence Intensity %,"AP-DNA [2]; relative to FARP alone = 100, equal concentration of test compound and FARP",100.0%
same,Fluorescence Intensity Individual Measurement,AP-DNA [2]; [3],17080.0 and 16892.0
same,Fluorescence Intensity Mean,AP-DNA [2]; [3],16986.0

# Source: patent US20090298077A1, “ASSAY FOR MEASUREMENT OF APURINIC/APYRIMIDINIC (AP) SITES AND FOR SCREENING AP-SITE REACTIVE COMPOUNDS” (priority 2006, published 2009)
